The values that follow come from paper PMC10412597, “Small molecule branched-chain ketoacid dehydrogenase kinase (BDK) inhibitors with opposing effects on BDK protein levels” (Nature Communications, 2023).

What all share (set-up): Cerep Bioprint off-target panel, functional receptor agonism or antagonism
In one assay the target is T1, Histamine H3 (Homo sapiens, UniProt Q9Y5N1).
T1 construct: gene HRH3
The note with it: agonist. The protocol:
(§1) To discover a potent and selective BDK inhibitor, a subset of the Pfizer compound collection was screened. […] Off target activity was assessed in both CEREP and kinase panels (Supplementary Tables 2, 3).

Another assay addresses T2, Dopamine 2S (Homo sapiens, UniProt P14416).
T2 construct: gene DRD2; short isoform (2S)
On the procedure:
as §1

Another assay deals with T3, Muscarinic 1 (Homo sapiens, UniProt P11229).
T3 construct: gene CHRM1
T3 sequence (P11229 1-460): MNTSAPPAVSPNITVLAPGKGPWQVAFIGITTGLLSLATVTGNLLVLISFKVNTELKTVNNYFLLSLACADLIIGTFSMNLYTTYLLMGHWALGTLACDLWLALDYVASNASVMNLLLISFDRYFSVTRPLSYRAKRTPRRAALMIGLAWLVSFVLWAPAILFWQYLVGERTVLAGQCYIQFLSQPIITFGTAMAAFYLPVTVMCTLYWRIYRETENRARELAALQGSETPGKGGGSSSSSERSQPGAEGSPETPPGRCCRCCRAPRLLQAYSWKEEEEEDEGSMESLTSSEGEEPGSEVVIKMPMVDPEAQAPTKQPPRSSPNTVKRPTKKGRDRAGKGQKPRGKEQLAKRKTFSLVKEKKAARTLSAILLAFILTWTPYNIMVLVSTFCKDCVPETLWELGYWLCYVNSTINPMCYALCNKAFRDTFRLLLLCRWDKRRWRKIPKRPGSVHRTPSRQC
The protocol: as §1

The target of a further assay is T4, Histamine H2 (Homo sapiens, UniProt P25021).
T4 construct: gene HRH2
The conditions noted are these: agonist. The protocol:
as §1

In assay [1] the target is T5, Adrenergic Alpha 2b Adrenoceptor (Homo sapiens, UniProt P18089).
T5 construct: gene ADRA2B
T5 sequence (P18089 1-450): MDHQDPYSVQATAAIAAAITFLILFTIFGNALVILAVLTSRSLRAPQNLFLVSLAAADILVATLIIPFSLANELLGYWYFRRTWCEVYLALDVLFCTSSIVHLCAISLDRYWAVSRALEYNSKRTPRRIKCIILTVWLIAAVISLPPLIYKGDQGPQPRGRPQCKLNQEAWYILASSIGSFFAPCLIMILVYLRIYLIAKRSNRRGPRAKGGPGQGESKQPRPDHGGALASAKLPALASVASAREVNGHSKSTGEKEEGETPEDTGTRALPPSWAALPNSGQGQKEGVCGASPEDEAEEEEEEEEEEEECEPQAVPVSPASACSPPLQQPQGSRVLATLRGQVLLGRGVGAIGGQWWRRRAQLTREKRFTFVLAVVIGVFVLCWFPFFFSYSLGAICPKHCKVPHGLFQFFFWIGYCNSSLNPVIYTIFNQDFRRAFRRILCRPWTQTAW
On the procedure:
as §1

The next assay deals with T6, Histamine H1 (Homo sapiens, UniProt P35367).
T6 construct: gene HRH1
The protocol: as §1

The target in another assay is T7, Delta Opioid Receptor (Homo sapiens, UniProt P41143).
T7 construct: gene OPRD1
The conditions noted are these: agonist. On the procedure: as §1

The next assay concerns the target T8, Mu Opiod (Homo sapiens, UniProt P35372).
T8 construct: gene OPRM1
The conditions noted are these: antagonist. On the procedure:
as §1

Assay [2] addresses T9, Adrenergic Alpha 1a Adrenoceptor (Homo sapiens, UniProt P35348).
T9 construct: gene ADRA1A
T9 sequence (P35348 1-466): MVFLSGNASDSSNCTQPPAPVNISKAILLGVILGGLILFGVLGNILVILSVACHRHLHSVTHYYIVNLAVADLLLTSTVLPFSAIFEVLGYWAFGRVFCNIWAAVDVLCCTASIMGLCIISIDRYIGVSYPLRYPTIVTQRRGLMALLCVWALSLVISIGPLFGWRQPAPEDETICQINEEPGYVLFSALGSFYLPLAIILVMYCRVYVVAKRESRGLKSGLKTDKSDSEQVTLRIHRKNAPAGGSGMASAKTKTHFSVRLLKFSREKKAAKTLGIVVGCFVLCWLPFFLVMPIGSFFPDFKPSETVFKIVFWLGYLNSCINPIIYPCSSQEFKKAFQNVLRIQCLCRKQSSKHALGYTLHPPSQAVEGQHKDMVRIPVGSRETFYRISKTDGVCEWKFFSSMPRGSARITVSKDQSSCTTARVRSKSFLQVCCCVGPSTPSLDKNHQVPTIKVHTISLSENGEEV
The protocol:
as §1

Another assay deals with T10, Cholecystokinin 2 (Homo sapiens, UniProt P32239).
T10 construct: gene CCKBR
The conditions noted are these: agonist. On the procedure:
as §1

The target in assay [3] is T11, Serotonin 5-HT1b Receptor (Homo sapiens, UniProt P28222).
T11 construct: gene HTR1B
The note with it: agonist. The protocol: as §1

Another assay deals with T12, Endothelin A (Homo sapiens, UniProt P25101).
T12 construct: gene EDNRA
The note with it: agonist. The protocol: as §1

A further assay concerns the target T13, Serotonin 5-HT2b (Homo sapiens, UniProt P41595).
T13 construct: gene HTR2B
The conditions noted are these: agonist. On the procedure: as §1

T2 sequence (P14416 whole entry, canonical isoform): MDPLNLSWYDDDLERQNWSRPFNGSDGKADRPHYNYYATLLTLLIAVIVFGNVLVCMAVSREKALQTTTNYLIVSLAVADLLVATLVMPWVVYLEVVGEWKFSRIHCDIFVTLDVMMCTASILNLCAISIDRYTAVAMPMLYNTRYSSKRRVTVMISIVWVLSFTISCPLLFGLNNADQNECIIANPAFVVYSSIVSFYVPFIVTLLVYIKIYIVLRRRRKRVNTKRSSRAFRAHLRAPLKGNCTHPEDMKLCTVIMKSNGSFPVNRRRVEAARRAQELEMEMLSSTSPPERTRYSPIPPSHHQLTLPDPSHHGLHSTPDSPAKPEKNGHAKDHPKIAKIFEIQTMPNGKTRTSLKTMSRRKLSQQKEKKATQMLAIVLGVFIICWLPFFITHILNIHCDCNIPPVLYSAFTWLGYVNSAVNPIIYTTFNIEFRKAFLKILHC
T6 sequence (P35367 whole entry): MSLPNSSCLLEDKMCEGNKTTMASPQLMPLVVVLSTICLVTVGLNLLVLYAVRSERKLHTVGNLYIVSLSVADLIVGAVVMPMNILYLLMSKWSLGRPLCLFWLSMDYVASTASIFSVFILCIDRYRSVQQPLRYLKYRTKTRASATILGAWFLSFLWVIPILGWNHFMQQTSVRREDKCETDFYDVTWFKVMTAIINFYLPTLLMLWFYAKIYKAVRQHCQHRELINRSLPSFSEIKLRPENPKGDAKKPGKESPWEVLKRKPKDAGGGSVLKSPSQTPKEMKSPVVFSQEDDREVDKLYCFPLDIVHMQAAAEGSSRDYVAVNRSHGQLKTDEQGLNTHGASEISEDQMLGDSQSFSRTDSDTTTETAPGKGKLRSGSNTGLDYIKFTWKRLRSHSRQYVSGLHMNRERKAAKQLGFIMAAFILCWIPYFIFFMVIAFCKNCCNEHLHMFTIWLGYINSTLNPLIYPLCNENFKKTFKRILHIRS
T10 sequence (P32239 whole entry): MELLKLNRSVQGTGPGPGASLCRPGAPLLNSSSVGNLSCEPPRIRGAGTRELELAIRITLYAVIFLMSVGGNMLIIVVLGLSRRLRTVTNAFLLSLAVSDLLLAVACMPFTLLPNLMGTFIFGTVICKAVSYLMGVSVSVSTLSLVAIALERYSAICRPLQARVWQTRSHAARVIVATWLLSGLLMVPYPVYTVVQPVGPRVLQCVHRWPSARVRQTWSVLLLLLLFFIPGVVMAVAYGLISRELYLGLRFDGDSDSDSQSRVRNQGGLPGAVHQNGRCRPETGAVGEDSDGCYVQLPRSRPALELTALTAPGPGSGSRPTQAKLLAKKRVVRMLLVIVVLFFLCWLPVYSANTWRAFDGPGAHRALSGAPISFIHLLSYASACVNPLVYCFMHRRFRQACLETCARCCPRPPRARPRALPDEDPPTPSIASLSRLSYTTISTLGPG
T7 sequence (P41143 whole entry): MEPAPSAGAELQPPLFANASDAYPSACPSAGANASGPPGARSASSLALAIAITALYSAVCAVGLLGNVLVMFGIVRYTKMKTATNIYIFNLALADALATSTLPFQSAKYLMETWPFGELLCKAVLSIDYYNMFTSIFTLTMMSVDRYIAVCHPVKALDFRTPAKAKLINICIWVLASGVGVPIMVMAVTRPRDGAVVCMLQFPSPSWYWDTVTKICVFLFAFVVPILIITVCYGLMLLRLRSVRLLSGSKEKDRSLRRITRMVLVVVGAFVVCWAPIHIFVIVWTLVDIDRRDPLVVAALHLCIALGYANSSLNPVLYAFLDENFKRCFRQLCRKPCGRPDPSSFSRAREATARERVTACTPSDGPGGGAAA
T13 sequence (P41595 whole entry): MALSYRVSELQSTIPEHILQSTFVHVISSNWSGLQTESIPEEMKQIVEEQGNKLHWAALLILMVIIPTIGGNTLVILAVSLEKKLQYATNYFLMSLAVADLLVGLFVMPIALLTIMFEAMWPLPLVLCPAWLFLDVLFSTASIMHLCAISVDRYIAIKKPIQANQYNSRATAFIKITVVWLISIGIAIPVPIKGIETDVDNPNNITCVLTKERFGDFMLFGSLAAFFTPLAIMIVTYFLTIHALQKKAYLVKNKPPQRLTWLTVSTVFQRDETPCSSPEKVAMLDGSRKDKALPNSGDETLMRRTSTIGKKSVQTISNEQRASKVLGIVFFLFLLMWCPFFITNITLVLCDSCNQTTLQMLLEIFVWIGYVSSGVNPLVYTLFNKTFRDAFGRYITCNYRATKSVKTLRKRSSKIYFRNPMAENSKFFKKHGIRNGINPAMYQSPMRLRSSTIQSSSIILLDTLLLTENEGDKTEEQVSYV
T1 sequence (Q9Y5N1 whole entry): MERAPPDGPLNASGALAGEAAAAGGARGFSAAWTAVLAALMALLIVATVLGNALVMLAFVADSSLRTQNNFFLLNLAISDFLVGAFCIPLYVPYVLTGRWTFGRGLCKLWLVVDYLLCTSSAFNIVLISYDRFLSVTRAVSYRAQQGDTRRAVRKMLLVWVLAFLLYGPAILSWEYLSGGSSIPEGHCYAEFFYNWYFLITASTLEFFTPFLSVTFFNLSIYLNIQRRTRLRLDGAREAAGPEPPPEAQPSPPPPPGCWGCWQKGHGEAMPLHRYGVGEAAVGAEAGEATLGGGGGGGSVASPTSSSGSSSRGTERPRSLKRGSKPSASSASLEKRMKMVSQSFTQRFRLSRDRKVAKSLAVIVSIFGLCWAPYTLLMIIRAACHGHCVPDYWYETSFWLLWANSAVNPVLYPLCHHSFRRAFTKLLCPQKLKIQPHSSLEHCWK
T4 sequence (P25021 whole entry): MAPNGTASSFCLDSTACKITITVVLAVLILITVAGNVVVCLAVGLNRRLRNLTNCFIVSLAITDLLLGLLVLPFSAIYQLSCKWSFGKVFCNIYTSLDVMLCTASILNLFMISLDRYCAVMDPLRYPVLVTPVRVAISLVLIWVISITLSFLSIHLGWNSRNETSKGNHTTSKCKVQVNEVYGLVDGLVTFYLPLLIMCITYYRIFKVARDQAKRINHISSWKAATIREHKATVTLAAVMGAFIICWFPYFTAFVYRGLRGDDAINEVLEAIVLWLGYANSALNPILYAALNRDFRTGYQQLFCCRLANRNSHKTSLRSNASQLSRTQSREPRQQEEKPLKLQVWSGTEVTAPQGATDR
T8 sequence (P35372 whole entry): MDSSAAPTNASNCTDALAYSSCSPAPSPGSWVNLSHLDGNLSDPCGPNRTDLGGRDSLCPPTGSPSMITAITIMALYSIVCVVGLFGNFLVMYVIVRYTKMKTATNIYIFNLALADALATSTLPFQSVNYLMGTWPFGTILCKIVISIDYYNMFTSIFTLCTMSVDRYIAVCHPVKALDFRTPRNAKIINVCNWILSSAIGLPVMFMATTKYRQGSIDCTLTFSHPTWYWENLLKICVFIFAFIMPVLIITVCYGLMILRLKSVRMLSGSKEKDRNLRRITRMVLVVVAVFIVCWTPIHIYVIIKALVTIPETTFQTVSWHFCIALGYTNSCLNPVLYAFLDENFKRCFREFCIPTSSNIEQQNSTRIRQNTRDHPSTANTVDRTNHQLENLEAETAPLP
T12 sequence (P25101 whole entry): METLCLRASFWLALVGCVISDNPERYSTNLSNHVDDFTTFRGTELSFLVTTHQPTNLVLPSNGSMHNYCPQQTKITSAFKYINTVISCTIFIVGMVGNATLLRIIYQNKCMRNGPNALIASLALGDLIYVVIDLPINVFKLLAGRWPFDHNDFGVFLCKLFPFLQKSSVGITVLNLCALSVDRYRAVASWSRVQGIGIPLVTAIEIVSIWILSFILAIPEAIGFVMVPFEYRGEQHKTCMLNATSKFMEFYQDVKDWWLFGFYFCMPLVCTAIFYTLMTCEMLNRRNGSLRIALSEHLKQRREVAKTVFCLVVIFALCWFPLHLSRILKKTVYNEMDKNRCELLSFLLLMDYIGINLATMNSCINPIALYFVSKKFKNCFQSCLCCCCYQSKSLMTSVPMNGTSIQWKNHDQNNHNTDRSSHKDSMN
T11 sequence (P28222 whole entry): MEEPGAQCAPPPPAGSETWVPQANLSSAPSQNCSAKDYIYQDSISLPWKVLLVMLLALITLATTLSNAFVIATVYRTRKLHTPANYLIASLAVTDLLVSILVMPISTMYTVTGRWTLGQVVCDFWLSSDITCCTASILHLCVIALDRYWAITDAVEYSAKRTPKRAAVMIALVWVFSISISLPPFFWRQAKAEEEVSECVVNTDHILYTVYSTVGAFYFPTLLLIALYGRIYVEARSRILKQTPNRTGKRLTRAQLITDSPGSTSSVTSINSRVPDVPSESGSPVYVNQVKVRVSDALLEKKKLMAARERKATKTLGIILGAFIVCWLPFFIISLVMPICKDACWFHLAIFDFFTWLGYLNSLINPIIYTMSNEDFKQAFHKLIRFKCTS

Regarding `O=C(O)c1sc2cc(F)sc2c1Cl` [PF-07208254, 3-chloro-5-fluorothieno[3,2-b]thiophene-2-carboxylic acid], the “% (agonism) PF-07208254” value was 15% on Histamine H3 (100 µM); -29% at Dopamine 2S (100 µM, agonist); -1% on Muscarinic 1 (100 µM, agonist); 0% on Histamine H2 (100 µM); -4% in assay [1] (100 µM, agonist); -1% at Histamine H1 (100 µM, agonist). The “% (agonism) PF-07208254” value at Delta Opioid Receptor (100 µM) is -2%; in [2] (100 µM, agonist), 8%; at Cholecystokinin 2 (100 µM), 0%; in [3] (100 µM), 39%; on Endothelin A (100 µM), 4%; on Serotonin 5-HT2b (100 µM), -5%. Moreover, the “% Inhibition (antagonism) PF-07208254” value on Dopamine 2S (100 µM, antagonist) is on record as -7%; at Muscarinic 1 (100 µM, antagonist), 0%; in [1] (100 µM, antagonist), -2%; at Histamine H1 (100 µM, antagonist), 17%; on Mu Opiod (100 µM) it was 2%; in assay [2] (100 µM, antagonist) it was 21%.

For the molecule `CCC1(COc2ccc(-c3csc(-c4ccccc4C(=O)O)n3)cn2)CC1` [PF-07247685, 2-(4-{6-[(1-ethylcyclopropyl)methoxy]pyridin-3-yl}-1,3-thiazol-2-yl)benzoic acid], the “% (agonism) PF-07247685” value on Histamine H3 (10 µM) is 4%; at Dopamine 2S (10 µM, agonist) it was -17%; at Muscarinic 1 (10 µM, agonist) it was 1%; at Histamine H2 (10 µM), 1%; in assay [1] (10 µM, agonist), -1%; on Histamine H1 (10 µM, agonist) it was -5%. In addition, the “% (agonism) PF-07247685” value at Delta Opioid Receptor (10 µM) was -1%; in [2] (10 µM, agonist), 1%; at Cholecystokinin 2 (10 µM), -8%; in assay [3] (10 µM) it was 34%; at Endothelin A (10 µM), -4%; on Serotonin 5-HT2b (10 µM), -5%. Besides, the “% Inhibition (antagonism) PF-07247685” value on Dopamine 2S (10 µM, antagonist) was -7%; on Muscarinic 1 (10 µM, antagonist), 9%; in assay [1] (10 µM, antagonist), -1%; at Histamine H1 (10 µM, antagonist) it was -2%; on Mu Opiod (10 µM), -3%; in [2] (10 µM, antagonist), 14%.
